What was measured:
[1] = tested on: HBL; experiment: Antiproliferative activity against human HBL cells assessed as inhibition of cell growth; type: functional
[2] = molecular target: Phosphatidylinositol 4,5-bisphosphate 3-kinase catalytic subunit gamma isoform (Homo sapiens, UniProt P48736); experiment: Binding affinity to PI3Kgamma (unknown origin) assessed as dissociation constant
[3] = molecular target: Phosphatidylinositol 4,5-bisphosphate 3-kinase catalytic subunit beta isoform (Homo sapiens, UniProt P42338); experiment: Binding affinity to PI3Kbeta (unknown origin) assessed as dissociation constant
[4] = molecular target: Phosphatidylinositol 4,5-bisphosphate 3-kinase catalytic subunit alpha isoform (Homo sapiens, UniProt P42336); experiment: Binding affinity to PI3Kalpha (unknown origin) assessed as dissociation constant
[5] = molecular target: Proto-oncogene tyrosine-protein kinase Src (Homo sapiens, UniProt P12931); experiment: Inhibition of Src kinase (unknown origin) phosphorylation at Tyr416/419 residues incubated for 24 hrs by Western blot analysis
[6] = molecular target: Tyrosine-protein kinase Lck (Homo sapiens, UniProt P06239); experiment: Inhibition of His-tagged LCK (62 to 509 residues) (unknown origin) expressed in Sf9 insect cells at 10 uM using poly (Glu, Tyr) 4:1 as substrate incubated for 1 hr by spectrometric analysis
[7] = molecular target: Tyrosine-protein kinase Lyn (Homo sapiens, UniProt P07948); experiment: Inhibition of LYN (unknown origin)
[8] = tested on: MDA-MB-231; experiment: Antitumor activity against human MDA-MB-231 cells xenografted in athymic nude mouse assessed as the inhibition of tumor growth at 25 mg/kg, ip administered twice daily for 14 days relative to control; type: functional; details: MDA-MB-231, 336 h, time 14 day, read-out: TGI
[9] = tested on: MDA-MB-231; experiment: Antitumor activity against human MDA-MB-231 cells xenografted in athymic nude mouse assessed as the inhibition of tumor growth at 65 mg/kg, ip measured at 24 hrs post-dose relative to control; details: MDA-MB-231, 24 h, read-out: TGI

Chain of Tyrosine-protein kinase Lyn (P07948 whole entry): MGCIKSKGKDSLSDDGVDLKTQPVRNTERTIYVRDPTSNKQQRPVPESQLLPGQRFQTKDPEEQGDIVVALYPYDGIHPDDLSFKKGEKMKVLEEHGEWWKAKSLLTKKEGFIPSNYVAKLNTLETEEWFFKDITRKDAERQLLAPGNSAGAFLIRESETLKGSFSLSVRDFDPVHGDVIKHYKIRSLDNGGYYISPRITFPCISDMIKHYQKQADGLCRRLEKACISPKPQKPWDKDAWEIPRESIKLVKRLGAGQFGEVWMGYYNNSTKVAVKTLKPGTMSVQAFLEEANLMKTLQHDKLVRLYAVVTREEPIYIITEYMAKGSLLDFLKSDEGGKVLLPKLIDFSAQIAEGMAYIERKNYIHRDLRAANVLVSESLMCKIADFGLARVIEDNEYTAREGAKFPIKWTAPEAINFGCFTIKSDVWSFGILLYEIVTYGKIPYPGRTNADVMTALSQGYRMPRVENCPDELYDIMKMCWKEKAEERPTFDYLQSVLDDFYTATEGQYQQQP
Chain of Phosphatidylinositol 4,5-bisphosphate 3-kinase catalytic subunit beta isoform (P42338 whole entry, canonical isoform): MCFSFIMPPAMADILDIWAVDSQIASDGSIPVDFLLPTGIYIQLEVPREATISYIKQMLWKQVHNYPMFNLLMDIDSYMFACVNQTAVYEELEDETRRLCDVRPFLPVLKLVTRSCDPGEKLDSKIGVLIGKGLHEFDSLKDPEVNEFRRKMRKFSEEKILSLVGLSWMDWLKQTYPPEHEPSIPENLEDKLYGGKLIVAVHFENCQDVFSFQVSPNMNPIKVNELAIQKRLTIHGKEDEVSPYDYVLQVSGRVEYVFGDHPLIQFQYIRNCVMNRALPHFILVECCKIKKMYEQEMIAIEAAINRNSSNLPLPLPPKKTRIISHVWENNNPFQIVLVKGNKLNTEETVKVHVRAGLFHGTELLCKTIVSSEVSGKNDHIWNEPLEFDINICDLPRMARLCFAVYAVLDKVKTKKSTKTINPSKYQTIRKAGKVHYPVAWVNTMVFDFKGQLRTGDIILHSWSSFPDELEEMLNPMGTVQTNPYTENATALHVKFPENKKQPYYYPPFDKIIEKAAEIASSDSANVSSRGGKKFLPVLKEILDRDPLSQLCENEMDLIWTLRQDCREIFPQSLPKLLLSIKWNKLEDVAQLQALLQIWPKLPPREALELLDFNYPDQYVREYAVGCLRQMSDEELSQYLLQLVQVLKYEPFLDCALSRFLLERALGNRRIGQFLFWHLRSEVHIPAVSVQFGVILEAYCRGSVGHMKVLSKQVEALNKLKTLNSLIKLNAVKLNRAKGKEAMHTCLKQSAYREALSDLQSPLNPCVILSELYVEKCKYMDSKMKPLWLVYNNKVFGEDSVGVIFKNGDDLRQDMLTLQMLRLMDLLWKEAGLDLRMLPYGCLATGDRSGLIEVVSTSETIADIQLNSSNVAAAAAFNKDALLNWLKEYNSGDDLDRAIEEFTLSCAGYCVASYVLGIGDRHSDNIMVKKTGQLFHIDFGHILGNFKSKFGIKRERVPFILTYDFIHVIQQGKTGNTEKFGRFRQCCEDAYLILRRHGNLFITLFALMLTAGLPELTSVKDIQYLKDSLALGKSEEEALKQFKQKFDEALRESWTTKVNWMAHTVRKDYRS
Chain of Phosphatidylinositol 4,5-bisphosphate 3-kinase catalytic subunit alpha isoform (P42336 whole entry, canonical isoform): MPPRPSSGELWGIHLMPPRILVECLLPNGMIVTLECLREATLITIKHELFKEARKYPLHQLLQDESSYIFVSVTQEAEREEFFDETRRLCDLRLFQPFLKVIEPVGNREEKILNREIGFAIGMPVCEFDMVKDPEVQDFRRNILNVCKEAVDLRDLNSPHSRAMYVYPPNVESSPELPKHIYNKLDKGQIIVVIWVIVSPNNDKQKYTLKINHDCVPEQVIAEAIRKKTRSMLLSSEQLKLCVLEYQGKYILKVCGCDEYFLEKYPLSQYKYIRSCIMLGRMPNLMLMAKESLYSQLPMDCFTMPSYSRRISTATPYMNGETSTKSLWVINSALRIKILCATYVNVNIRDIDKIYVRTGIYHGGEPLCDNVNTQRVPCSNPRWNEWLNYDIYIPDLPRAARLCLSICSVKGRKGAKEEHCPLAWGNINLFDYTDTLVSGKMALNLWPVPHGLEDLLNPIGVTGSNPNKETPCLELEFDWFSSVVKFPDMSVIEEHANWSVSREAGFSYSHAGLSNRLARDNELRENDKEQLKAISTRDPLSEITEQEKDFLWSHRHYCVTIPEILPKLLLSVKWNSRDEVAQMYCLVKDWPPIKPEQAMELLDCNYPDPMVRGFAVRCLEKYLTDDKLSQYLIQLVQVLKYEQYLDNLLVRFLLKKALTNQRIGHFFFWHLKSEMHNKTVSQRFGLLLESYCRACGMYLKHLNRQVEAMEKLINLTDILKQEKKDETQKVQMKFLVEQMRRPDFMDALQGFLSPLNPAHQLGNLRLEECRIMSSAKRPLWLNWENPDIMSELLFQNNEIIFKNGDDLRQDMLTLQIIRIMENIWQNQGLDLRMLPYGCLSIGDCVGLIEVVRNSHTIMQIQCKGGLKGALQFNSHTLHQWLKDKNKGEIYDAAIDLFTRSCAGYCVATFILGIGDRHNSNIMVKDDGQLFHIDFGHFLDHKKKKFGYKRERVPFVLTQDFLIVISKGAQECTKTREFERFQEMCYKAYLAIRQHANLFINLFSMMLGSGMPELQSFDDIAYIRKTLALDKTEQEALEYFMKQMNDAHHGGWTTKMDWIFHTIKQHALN
Chain of Tyrosine-protein kinase Lck (P06239 whole entry, the tested form may be a part): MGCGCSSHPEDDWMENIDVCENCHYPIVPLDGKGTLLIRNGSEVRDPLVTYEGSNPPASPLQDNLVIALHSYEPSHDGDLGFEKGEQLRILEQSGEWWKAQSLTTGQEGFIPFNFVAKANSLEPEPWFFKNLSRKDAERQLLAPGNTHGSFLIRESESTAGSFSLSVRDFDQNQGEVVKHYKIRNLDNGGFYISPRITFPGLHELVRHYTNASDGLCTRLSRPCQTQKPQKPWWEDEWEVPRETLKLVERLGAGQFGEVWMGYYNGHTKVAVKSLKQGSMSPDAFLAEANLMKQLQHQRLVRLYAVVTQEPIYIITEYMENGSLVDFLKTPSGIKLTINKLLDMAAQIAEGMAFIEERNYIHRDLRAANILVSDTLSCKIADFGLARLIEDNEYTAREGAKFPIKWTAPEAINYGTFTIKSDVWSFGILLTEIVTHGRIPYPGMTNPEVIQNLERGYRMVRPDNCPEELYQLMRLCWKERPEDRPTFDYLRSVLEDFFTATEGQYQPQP
Chain of Phosphatidylinositol 4,5-bisphosphate 3-kinase catalytic subunit gamma isoform (P48736 whole entry, canonical isoform): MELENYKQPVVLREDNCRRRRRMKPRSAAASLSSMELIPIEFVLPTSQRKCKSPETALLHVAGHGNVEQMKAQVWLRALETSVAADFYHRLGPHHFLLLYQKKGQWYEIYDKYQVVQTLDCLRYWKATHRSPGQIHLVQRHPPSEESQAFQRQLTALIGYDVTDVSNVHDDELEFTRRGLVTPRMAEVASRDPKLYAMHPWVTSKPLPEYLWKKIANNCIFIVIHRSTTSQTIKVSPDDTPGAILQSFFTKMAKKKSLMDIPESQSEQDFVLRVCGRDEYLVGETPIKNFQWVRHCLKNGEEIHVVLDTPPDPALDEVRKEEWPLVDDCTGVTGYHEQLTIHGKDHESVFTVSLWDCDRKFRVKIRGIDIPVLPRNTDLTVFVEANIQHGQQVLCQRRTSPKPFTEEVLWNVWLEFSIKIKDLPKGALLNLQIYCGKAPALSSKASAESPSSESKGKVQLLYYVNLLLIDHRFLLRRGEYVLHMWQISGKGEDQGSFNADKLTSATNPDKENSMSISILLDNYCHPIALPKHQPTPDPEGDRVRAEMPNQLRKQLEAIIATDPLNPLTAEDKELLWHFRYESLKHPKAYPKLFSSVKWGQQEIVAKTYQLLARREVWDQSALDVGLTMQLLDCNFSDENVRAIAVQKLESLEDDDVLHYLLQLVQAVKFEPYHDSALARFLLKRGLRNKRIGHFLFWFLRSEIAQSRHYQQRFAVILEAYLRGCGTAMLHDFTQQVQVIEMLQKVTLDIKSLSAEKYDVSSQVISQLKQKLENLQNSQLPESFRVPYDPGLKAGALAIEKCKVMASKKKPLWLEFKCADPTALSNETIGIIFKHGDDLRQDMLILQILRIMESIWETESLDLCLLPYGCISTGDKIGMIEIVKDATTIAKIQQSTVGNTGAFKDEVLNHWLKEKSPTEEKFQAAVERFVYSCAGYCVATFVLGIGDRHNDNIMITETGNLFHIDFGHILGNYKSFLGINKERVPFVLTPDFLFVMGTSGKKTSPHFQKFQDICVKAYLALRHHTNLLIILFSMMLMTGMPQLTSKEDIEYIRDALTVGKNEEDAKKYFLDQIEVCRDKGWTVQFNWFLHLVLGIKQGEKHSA
Chain of Proto-oncogene tyrosine-protein kinase Src (P12931 2-536 limits assumed): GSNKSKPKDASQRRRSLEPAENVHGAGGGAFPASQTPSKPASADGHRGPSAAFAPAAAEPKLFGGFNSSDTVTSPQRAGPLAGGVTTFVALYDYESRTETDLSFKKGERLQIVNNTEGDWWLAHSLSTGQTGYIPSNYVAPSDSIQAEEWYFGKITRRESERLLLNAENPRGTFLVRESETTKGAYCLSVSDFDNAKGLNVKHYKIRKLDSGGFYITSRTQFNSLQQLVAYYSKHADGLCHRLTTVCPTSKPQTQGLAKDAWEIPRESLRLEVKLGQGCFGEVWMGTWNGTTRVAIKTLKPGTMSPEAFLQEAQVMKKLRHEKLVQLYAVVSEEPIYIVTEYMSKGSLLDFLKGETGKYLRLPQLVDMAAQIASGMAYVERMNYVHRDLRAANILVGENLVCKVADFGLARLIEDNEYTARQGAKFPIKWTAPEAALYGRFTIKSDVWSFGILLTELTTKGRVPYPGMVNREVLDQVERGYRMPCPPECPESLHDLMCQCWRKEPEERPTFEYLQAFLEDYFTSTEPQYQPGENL

Nc1ncnc2c1c(-c1ccc(Oc3ccccc3)cc1)nn2[C@@H]1CCCN(C(=O)c2cn(CCOCCOCCOCCNc3cccc4c3C(=O)N(C3CCC(=O)NC3=O)C4=O)nn2)C1 (some centres undefined)
GI50 [1]: 28 nM

CC(C)Oc1ccc(-c2nn([C@H](C)c3oc4ccc(F)cc4c(=O)c3-c3cccc(F)c3)c3ncnc(N)c23)cc1F
Kd [2]: > 1400 nM
Kd [3]: > 10000 nM
Kd [4]: > 10000 nM

CN1CCN([C@H]2CC[C@H](n3cc(-c4ccc(Oc5ccccc5)cc4)c4c(N)ncnc43)CC2)CC1
IC50 [5]: 9 nM
IC50 [6]: < 3 nM
IC50 [7]: < 3 nM

COc1cccc2cc(-c3nc([C@H]4CC[C@H](C(=O)O)CC4)n4ncnc(N)c34)[nH]c12 [OSI-027]
inhibition in vivo at 25 mg/kg [8]: 90%
inhibition in vivo at 65 mg/kg [9]: 100%

— ChEMBL document CHEMBL5241118, “4-Aminopyrazolopyrimidine scaffold and its deformation in the design of tyrosine and serine/threonine kinase inhibitors in medicinal chemistry” (RSC Med Chem, 2022)
